Experiments:
[1] = test system: self-complementary duplex 12-mer d(AATTACGTAATT) (SEQ ID NO: 1); assay: DNA alkylation detected by non-denaturing DNA-gel electrophoresis with in-gel fluorescence; format: biochemical; conditions: oligonucleotide 100 μM; at the lowest concentration of DC-45-A2 (printed 1 mM); 3 h at 23 °C
[2] = test system: nuclei of H460 cells; assay: Fluorescence microscopy of labeled H460 cells; format: cell-based; conditions: 0.4 μM, 5 h at 37 °C, co-stain TO-PRO-3
Procedure: Fluorescence images of nuclei of H460 cells labeled with DC-45-A2 [4.0 μM] or dideoxy-DC-45-A2 [0.4 μM] for 5 h at 37° C. is provided in FIG. 15. […] The scale bar represents 10 μm.
Experimental Details for Fluorescence Microscopy: H460 cells were grown on 22 mm glass coverslips and allowed to attach for 24 h. Subconfluent H460 cells (50-60% confluency) were treated with drugs of desired concentration and incubated at 37° C. for 5 h. The coverslips were washed three times with warm PBS. The cells were then fixed with 4% paraformaldehyde in PBS at 23° C. for 15 min. At 23° C., the cells were permeablized with 0.1% Triton-X100 in PBS for 15 min and blocked with 5% BSA for 40 min. After two washes with PBS, the cells were incubated with 0.2 µM TO-PRO-3 (Invitrogen) in PBS at 23° C. for 15 min. The coverslips were washed three times with PBS and mounted with Mowiol on microscope slides. Fluorescent images were captured on an Olympus IX71 inverted microscope equipped with a 60× water-immersion objective, a Nikon Intensilight Illuminator, and an Andor iXon EMCCD camera. Imaging data of DC-45-A2 and dideoxy DC-45-A2 were collected with a 387/11 nm excitation filter and a 510/84 nm emission filter purchased from Semrock. TO-PRO-3 dye was imaged using Cy5 channels. The images were complied and colorized using ImageJ software.

Substance: DC-45-A2
- fluorescent DC-45-A2-DNA complex, in-gel fluorescence prior to ethidium bromide staining [1]: clearly observed

Substance: Dideoxy-DC-45-A2
- localization in cells [2]: co-localizes with nuclear DNA
